Measurements taken from paper PMC4685510, “A Cell Biologist’s Field Guide to Aurora Kinase Inhibitors” (Frontiers in Oncology, 2015).
Read-outs that look alike come from different tables or passages of the source.

Tests used:
Assay in all cases: biochemical
Assay type in all cases: biochemical
[1] = target: T1, 363 human kinases (including Aurora A/B/C) (Homo sapiens, UniProt O15111); details: IKKa/CHUK; for remaining activity at 0.1 µM: 100 nM; for remaining activity at 0.1 µM / remaining activity at 0.5 µM: read-out: % Enzyme Activity (relative to DMSO controls)
T1 sequence (O15111 1-745): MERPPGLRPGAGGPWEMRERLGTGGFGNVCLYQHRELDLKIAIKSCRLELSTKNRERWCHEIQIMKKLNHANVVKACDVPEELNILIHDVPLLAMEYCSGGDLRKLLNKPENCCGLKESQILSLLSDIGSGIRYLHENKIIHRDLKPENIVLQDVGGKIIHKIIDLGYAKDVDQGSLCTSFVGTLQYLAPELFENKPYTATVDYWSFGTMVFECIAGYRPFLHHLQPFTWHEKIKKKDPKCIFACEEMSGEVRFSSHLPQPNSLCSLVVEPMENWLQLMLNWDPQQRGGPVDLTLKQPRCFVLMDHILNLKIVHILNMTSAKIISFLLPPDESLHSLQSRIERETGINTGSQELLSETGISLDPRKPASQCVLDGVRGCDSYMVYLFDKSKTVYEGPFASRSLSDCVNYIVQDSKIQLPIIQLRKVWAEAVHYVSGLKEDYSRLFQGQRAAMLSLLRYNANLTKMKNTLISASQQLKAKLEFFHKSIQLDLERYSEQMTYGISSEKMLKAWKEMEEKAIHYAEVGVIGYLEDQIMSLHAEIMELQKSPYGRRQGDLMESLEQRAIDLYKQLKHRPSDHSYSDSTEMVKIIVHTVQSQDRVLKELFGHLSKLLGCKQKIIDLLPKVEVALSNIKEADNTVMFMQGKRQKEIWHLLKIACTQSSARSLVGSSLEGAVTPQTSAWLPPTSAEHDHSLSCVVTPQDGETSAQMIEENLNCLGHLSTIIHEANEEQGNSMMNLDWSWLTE
Source text: (§1) However, the Aurora A/B selectivity ratios derived from our in vitro and in vivo data can be compared to prioritize inhibitors.

[2] = target: 363 human kinases (including Aurora A/B/C) (Homo sapiens, UniProt O96013); details: PAK4; for remaining activity at 0.1 µM: 100 nM; for remaining activity at 0.1 µM / remaining activity at 0.5 µM: read-out: % Enzyme Activity (relative to DMSO controls)
Source text: as §1

[3] = target: 363 human kinases (including Aurora A/B/C) (Homo sapiens, UniProt P24941); details: for remaining activity at 0.1 µM: 100 nM; for remaining activity at 0.1 µM / remaining activity at 0.5 µM: read-out: % Enzyme Activity (relative to DMSO controls); for remaining activity at 0.5 µM / % Enzyme Activity (relative to DMSO controls): 500 nM
Source text: as §1

[4] = target: 363 human kinases (including Aurora A/B/C) (Homo sapiens, UniProt Q15759); details: P38b/MAPK11; for remaining activity at 0.1 µM: 100 nM; for remaining activity at 0.1 µM / remaining activity at 0.5 µM: read-out: % Enzyme Activity (relative to DMSO controls)
Source text: as §1

[5] = target: 363 human kinases (including Aurora A/B/C) (Homo sapiens, UniProt Q5TCY1); details: TTBK1; for remaining activity at 0.1 µM: 100 nM; for remaining activity at 0.1 µM / remaining activity at 0.5 µM: read-out: % Enzyme Activity (relative to DMSO controls)
Source text: as §1

[6] = target: 363 human kinases (including Aurora A/B/C) (Homo sapiens, UniProt Q9BYP7); details: WNK3; for remaining activity at 0.1 µM: 100 nM; for remaining activity at 0.1 µM / remaining activity at 0.5 µM: read-out: % Enzyme Activity (relative to DMSO controls)
Source text: as §1

[7] = target: 363 human kinases (including Aurora A/B/C) (Homo sapiens, UniProt Q9HCP0); details: CK1g1, [ATP] 20 µM; for remaining activity at 0.1 µM: 100 nM; for remaining activity at 0.1 µM / remaining activity at 0.5 µM: read-out: % Enzyme Activity (relative to DMSO controls)
Source text: as §1

[8] = target: T2, 363 human kinases (including Aurora A/B/C) (Homo sapiens, UniProt Q9NRH2); details: SNRK; for remaining activity at 0.1 µM: 100 nM; for remaining activity at 0.1 µM / remaining activity at 0.5 µM: read-out: % Enzyme Activity (relative to DMSO controls)
T2 sequence (Q9NRH2 1-765): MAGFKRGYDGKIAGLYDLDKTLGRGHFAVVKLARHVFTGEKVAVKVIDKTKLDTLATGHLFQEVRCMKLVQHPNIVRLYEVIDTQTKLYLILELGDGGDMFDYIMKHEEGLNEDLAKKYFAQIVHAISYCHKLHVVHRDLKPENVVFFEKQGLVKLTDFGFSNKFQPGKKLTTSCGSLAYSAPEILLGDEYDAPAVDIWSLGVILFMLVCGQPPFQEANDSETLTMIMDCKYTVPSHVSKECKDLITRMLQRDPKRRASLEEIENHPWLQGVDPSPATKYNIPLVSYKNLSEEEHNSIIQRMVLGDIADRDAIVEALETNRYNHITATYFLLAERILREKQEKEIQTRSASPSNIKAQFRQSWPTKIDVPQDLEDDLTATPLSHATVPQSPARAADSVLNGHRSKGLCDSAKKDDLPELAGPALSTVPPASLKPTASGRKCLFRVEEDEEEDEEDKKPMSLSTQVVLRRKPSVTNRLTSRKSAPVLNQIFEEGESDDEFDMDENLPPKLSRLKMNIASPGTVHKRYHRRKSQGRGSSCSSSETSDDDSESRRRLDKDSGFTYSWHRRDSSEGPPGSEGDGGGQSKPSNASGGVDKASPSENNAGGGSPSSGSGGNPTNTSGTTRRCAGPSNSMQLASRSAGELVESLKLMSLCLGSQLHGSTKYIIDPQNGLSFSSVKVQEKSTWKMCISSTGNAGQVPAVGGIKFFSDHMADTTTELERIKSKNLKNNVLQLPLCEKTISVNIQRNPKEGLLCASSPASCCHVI
Source text: as §1

[9] = target: 363 human kinases (including Aurora A/B/C) (Homo sapiens, UniProt Q9UK32); details: RSK4; for remaining activity at 0.1 µM: 100 nM; for remaining activity at 0.1 µM / remaining activity at 0.5 µM: read-out: % Enzyme Activity (relative to DMSO controls)
Sequence of 363 human kinases (including Aurora A/B/C) (Homo sapiens, UniProt Q9UK32) (Q9UK32 whole entry): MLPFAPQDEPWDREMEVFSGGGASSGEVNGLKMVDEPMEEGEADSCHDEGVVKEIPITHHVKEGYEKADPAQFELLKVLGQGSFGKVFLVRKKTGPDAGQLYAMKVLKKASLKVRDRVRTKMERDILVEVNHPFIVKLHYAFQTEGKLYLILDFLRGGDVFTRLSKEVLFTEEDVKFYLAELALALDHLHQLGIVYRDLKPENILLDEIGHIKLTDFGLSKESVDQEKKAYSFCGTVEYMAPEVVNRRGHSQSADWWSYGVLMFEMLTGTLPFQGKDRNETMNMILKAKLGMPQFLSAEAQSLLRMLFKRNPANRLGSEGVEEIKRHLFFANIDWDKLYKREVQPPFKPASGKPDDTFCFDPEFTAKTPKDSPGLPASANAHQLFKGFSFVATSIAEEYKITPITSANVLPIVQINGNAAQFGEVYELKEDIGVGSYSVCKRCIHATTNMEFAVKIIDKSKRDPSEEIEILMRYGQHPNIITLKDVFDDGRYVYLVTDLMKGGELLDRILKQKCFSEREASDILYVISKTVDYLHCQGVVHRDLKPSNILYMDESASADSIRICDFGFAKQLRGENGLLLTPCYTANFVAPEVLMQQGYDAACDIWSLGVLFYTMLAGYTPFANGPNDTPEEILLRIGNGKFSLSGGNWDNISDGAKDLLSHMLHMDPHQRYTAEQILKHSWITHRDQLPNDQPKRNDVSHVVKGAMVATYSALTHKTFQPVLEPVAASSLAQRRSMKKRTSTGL
Source text: as §1

Sequence of 363 human kinases (including Aurora A/B/C) (Homo sapiens, UniProt Q9BYP7) (Q9BYP7 whole entry): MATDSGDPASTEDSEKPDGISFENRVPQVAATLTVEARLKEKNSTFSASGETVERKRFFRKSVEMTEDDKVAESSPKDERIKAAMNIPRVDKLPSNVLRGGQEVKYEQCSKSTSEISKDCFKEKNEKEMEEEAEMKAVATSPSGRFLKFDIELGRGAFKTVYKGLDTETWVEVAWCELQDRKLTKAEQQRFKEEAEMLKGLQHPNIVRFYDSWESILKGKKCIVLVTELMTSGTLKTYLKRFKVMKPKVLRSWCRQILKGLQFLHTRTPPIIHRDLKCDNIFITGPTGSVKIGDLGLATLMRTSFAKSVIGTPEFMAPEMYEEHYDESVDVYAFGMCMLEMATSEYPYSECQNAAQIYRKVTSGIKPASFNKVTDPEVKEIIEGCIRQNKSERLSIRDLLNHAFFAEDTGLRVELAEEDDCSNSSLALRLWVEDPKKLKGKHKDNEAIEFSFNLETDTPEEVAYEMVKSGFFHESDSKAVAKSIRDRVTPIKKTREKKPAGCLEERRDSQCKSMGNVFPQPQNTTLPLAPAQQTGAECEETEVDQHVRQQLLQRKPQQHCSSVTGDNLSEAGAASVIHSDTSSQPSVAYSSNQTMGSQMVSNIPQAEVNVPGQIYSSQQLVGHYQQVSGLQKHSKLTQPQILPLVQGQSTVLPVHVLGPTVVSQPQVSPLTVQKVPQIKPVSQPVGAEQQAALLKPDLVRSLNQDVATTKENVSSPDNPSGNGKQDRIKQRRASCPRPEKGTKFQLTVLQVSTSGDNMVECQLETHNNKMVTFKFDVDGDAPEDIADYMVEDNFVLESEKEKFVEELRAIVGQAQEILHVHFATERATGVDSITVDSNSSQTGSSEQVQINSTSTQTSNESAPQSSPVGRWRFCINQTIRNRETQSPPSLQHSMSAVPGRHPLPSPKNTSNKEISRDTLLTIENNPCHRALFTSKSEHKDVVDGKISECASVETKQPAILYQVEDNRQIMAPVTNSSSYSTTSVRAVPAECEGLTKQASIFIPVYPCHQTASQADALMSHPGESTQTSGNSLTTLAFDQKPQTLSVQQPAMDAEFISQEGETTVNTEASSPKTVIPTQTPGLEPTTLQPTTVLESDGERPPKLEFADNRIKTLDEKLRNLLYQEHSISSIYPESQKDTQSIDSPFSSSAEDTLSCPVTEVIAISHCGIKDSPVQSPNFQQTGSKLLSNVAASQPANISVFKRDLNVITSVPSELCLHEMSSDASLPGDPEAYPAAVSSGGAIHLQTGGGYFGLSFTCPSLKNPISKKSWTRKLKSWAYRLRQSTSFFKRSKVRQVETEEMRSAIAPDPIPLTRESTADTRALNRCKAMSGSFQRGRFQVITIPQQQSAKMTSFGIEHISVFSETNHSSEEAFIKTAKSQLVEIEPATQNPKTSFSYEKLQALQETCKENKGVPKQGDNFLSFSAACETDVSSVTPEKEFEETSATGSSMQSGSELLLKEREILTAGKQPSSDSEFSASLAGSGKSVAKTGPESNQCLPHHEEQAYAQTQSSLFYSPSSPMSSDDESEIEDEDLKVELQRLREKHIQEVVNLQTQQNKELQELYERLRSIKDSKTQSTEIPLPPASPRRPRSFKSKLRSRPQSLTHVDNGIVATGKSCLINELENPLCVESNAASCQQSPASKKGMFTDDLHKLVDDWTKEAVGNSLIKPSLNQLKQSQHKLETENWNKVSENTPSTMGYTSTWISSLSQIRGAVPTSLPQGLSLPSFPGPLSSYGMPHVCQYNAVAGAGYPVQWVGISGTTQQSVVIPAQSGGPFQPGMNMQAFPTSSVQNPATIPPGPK
Sequence of 363 human kinases (including Aurora A/B/C) (Homo sapiens, UniProt Q15759) (Q15759 whole entry): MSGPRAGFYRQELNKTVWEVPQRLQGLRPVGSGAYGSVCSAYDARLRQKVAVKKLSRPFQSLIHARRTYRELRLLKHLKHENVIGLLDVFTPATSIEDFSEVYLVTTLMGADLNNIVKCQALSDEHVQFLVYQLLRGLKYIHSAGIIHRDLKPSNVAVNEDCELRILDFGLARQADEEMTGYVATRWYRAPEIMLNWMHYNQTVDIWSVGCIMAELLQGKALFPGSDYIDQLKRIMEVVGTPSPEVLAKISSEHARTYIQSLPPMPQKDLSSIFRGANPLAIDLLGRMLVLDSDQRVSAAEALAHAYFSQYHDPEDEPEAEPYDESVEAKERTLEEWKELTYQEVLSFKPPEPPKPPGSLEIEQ
Sequence of 363 human kinases (including Aurora A/B/C) (Homo sapiens, UniProt O96013) (O96013 whole entry): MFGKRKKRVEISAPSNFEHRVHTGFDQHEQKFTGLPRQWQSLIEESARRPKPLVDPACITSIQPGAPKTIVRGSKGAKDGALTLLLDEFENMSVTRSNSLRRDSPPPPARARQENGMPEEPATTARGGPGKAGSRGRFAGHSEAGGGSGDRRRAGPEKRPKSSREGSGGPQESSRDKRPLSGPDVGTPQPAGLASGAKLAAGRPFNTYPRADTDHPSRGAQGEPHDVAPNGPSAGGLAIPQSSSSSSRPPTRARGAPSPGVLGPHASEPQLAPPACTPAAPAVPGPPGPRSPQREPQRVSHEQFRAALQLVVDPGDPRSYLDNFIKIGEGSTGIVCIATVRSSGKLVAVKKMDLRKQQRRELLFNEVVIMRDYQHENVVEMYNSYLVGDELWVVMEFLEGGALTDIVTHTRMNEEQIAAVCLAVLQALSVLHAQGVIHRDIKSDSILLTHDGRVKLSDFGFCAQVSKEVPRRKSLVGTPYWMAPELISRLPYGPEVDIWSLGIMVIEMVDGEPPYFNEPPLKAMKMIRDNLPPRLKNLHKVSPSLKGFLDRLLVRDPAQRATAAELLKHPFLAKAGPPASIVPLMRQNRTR
Sequence of 363 human kinases (including Aurora A/B/C) (Homo sapiens, UniProt Q9HCP0) (Q9HCP0 whole entry): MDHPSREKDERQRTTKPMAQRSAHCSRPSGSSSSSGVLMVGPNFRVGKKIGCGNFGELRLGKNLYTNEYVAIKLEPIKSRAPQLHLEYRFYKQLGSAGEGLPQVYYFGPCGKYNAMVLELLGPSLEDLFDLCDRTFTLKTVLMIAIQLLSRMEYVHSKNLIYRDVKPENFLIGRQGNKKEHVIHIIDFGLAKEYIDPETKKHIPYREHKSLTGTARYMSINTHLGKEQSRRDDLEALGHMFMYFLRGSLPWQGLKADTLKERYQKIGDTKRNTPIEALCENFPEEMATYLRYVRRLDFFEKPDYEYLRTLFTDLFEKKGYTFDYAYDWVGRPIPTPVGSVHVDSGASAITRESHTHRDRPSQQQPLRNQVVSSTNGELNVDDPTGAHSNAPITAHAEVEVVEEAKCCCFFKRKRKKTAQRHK

SMILES | remaining activity at 0.1 µM [1] [%] | remaining activity at 0.1 µM [2] [%] | remaining activity at 0.1 µM ([3]; CDK2/Cyclin A1, [ATP] 100 µM) [%] | remaining activity at 0.1 µM ([3]; CDK2/cyclin A, [ATP] 100 µM) [%] | remaining activity at 0.1 µM ([3]; CDK2/cyclin E, [ATP] 5 µM) [%] | remaining activity at 0.1 µM ([3]; CDK2/cyclin O, [ATP] 30 µM) [%] | remaining activity at 0.1 µM [4] [%] | remaining activity at 0.1 µM [5] [%] | remaining activity at 0.1 µM [6] [%] | remaining activity at 0.1 µM [7] [%] | remaining activity at 0.1 µM [8] [%] | remaining activity at 0.1 µM [9] [%] | remaining activity at 0.5 µM ([1]; 500 nM) [%] | remaining activity at 0.5 µM ([2]; 500 nM) [%] | remaining activity at 0.5 µM ([3]; CDK2/Cyclin A1, [ATP] 100 µM) [%] | remaining activity at 0.5 µM ([3]; CDK2/cyclin A, [ATP] 100 µM) [%] | remaining activity at 0.5 µM ([3]; CDK2/cyclin E, [ATP] 5 µM) [%] | remaining activity at 0.5 µM ([3]; CDK2/cyclin O, [ATP] 30 µM) [%] | remaining activity at 0.5 µM ([4]; 500 nM) [%] | remaining activity at 0.5 µM ([5]; 500 nM) [%] | also measured
CCn1cc(-c2ccnc3[nH]c(-c4cccc(CN(C)C)c4)cc23)c(-c2ccc(NC(=O)N(C)C)cc2)n1 [GSK1070916] | 126 | 106 | 89.8 | 104 | 93 | 94.7 | 94.3 | 115 | 110 | 104 | 89.8 | 93.6 |  |  |  |  |  |  |  |  | 
O=C(O)[C@]1(Cc2cccc(Nc3nccs3)n2)CC[C@@H](Oc2cccc(Cl)c2F)CC1 [MK-5108] | 118 | 92.8 | 100 | 97.7 | 90.3 | 88.6 | 102 | 101 | 91.9 | 93.2 | 95.3 | 94.2 | 113 | 89.8 | 73.4 | 75.7 | 83.3 | 84.7 | 96 | 116 | remaining activity at 0.5 µM ([6]; 500 nM): 63.4%; remaining activity at 0.5 µM ([7]; 500 nM): 101%; remaining activity at 0.5 µM ([8]; 500 nM): 88.9%; remaining activity at 0.5 µM ([9]; 500 nM): 90.1%
O=C(c1cccc(Cl)c1F)N1CCN(Cc2cccc(Nc3nccs3)n2)CC1 [MK-8745] |  |  |  |  |  |  |  |  |  |  |  |  | 114 | 95.9 | 79.6 | 85.1 | 86.3 | 90.6 | 93.2 | 111 | % Enzyme Activity (relative to DMSO controls) ([1]; 500 nM): 107.82%; % Enzyme Activity (relative to DMSO controls) ([2]; 500 nM): 92.31%; % Enzyme Activity (relative to DMSO controls) ([3]; CDK2/Cyclin A1, [ATP] 100 µM): 75.87%; % Enzyme Activity (relative to DMSO controls) ([3]; CDK2/cyclin A, [ATP] 100 µM): 83.95%; % Enzyme Activity (relative to DMSO controls) ([3]; CDK2/cyclin E, [ATP] 5 µM): 85.62%; % Enzyme Activity (relative to DMSO controls) ([3]; CDK2/cyclin O, [ATP] 30 µM): 90.54%; % Enzyme Activity (relative to DMSO controls) ([4]; 500 nM): 92.96%; % Enzyme Activity (relative to DMSO controls) ([5]; 500 nM): 108.75%; % Enzyme Activity (relative to DMSO controls) ([6]; 500 nM): 106.70%; remaining activity at 0.5 µM ([6]; 500 nM): 108%; % Enzyme Activity (relative to DMSO controls) ([7]; 500 nM): 98.16%; remaining activity at 0.5 µM ([7]; 500 nM): 98.7%; % Enzyme Activity (relative to DMSO controls) ([8]; 500 nM): 90.66%; remaining activity at 0.5 µM ([8]; 500 nM): 92.9%; % Enzyme Activity (relative to DMSO controls) ([9]; 500 nM): 94.73%; remaining activity at 0.5 µM ([9]; 500 nM): 97.1%
